Test results published in patent publication US20040074447A1, “Methods of reducing incidence of stillborn pigs by using progesterone receptor antagonists” (priority 2002, published 2004).
Where “and” joins values, the source holds several entries; their conditions need not be identical. Identical values can stand only once. Entries after “also recorded” stand apart in the source; their conditions may differ. Like-named read-outs stand apart in the source and are kept apart here. Marks after values point to notes of the source that are not given here.

How the values were obtained:
progesterone in plasma = test: Example 1: progesterone in plasma by RIA around farrowing; format: in vivo, swine; details: for Mean concentration of progesterone in plasma: n in parentheses; for p4 = concentration of progesterone in plasma: trt 2, individual animals
Procedure: Blood samples. Blood samples were collected from all animals (including T1 and T2) prior to administration of test article at 7:30 am on days 112 and 113. In addition, a PM blood sample was collected beginning at approximately 1:30 pm on days 112 and 113. Additional blood samples were collected at 7:30 am and 1:30 pm on subsequent days (>or =day 114). The final blood sample was collected after farrowing was complete. All blood samples (7 ml) were collected using sodium heparin vacutainers. Samples were refrigerated, centrifuged, and plasma was separated within 2 hr after collection. One aliquot of each sample was sent to Cornell Veterinary Diagnostic Lab for progesterone analyses by RIA.
(§1) Data/Analyses. Response variables measured in this study were: hours from the time of the 1st dosing on day 112 post-breeding to birth of the 1st pig, hours from the 2nd dosing on day 113 to birth of the 1st pig, number of piglets that were alive at birth (born alive), stillborn (normal appearance term piglet, but dead at time of birth), and mummies (smaller than littermates, decayed at birth). The variables were analyzed using a mixed model analysis (proc mixed, SAS) with block as a random effect and treatment as a fixed effect. Concentrations of progesterone were analyzed using a repeated measure mixed model analysis, with block as a random effect and treatment as a fixed effect.

[1] = tested on: pregnant crossbred female swine; test: Example 2: induction of farrowing in pregnant gilts, oral CP161,258 (two doses or single dose) or intramuscular porcine relaxin; format: in vivo; details: for Hr, Dose d 112 To 1st pig ± SD / Hr, Dose d 113 To 1st pig ± SD: mean ± SD; for Piglet data: Born alive / Piglet data: Mummies / Piglet data: Stillborn: mean; for Reason (animals with incomplete data) / Born Alive / Hr, 1st treatment to 1st pig / Mummies / Still-born: individual animals; for effects on time to birth of the first pig, number born alive, or stillborns: 1200 U porcine relaxin IM on day 113
Procedure: Animals. […] This BW was used to calculate the amount of test article to administer (T2 and T3).
Randomization of animals. Animals were ranked according to expected farrowing date and then randomly assigned to treatment within blocks of 4 animals each.
Test article administration. […] For treatment groups T2 and T3, test article was diluted (a suspension) to a concentration of 25 mg/ml in 50% propylene glycol and stored refrigerated (2-8° C.).
For treatment groups T2 and T3, animals were snared and test article was administered orally using a 60 ml syringe. […] One container of approximately 440 ml was mixed and used within each week of the 3 wk study. Each animal assigned to T2 or T3 also received approximately 30 ml of tap water to insure that test article was swallowed.
Porcine relaxin was diluted to a concentration of 1200 U/ml in sterile physiological saline on the first day of use. Diluted porcine relaxin was stored in a locked refrigerator and removed only when injections took place. Relaxin (1 ml-T4) was administered intramuscularly in the lower part of the ham of either leg with an 18-gauge, 1.5″ long needle attached to a 3 ml syringe.
Administration of test articles occurred between 7:30 am and 8:30 am on almost all days of the study.
Piglets. Response variables measured in this study were: hours from the 1st treatment to the birth of the 1st pig, number of piglets that were alive at birth (born alive), stillborn (normal appearance term piglet, but dead at time of birth), and mummies (smaller than littermates, decayed at birth). Animals were not processed (no iron shots, no clipping of needle teeth, no individual identification), but umbilical cords were clipped to […]. length if animals could not be euthanized within 2 days after birth.
Data/Analyses. […] Data were analyzed using a mixed model analysis with block as a random effect and treatment as a fixed effect (proc mixed, SAS).

swine = details: 4 mg/kg body weight on days 111 and 112 post-breeding; cited from earlier work
[2] = tested on: pregnant crossbred female swine; format: in vivo
From the text: The objectives of this study were to determine the effects of administration of the progesterone receptor antagonist CP161,258 on the concentration of progesterone, the time interval from the 1st administration of test article on day 112 to birth of the 1st pig, the time interval from the 2nd administration of test article to birth of the 1st pig, and the status of piglets at birth (alive, stillborn, mummies).
Animals. Twenty pregnant crossbred female swine were purchased and delivered to Terre Haute on approximately day 102-107 of gestation. These animals were placed in farrowing crates in building 608W. Animals assigned to T2 averaged 195 kg BW. Animals (sows and piglets) were euthanized within 48 hr post-farrowing or on day 116 post-mating. There was no estimate of pre-weaning mortality in this study.
Randomization of animals. Animals were ranked according to expected farrowing date and randomly assigned to treatment within blocks of 2 animals each.
Test article administration. […] For treatment group T2, test article was diluted to a concentration of 25 mg/ml in 50% propylene glycol and water, and stored refrigerated (2-8° C.). Test article was administered orally after the morning blood sample was collected. The volume administered was approximately 30 ml to deliver a dosage of 4 mg/kg BW. Animals were administered with approximately 30 ml of water following administration of test article.
Early/late farrowing. […] If animals farrowed before day 114, the final blood sample was collected after farrowing was complete.
as §1

[3] = T2: 4 mg/kg BW CP161,258 oral D 112 + 113, counted from (day 112)
[4] = T2: 4 mg/kg BW oral D 112 + 113
[5] = T3: 8 mg/kg BW CP161,258 oral D 113, counted from (day 113)
[6] = Treatment 2: 4 mg/kg oral days 112 and 113, 4 mg/kg
[7] = Treatment 3: 8 mg/kg oral day 113, 8 mg/kg
[8] = 4 mg/kg BW orally days 112 and 113
[9] = T2: 4 mg/kg BW CP161,258 orally D 112 + 113, mean ± SD, n in parentheses
[10] = T2: 4 mg/kg BW orally D 112 + 113, mean per litter
[11] = T4: 1200 U pRelaxin intramuscular day 113, counted from (day 113)
[12] = T4: 1200 U pRelaxin intramuscular day 113
[13] = Treatment 4: 1200 IU Relaxin intramuscular day 113

## CC#CC1(O)CCC2C3CCC4=CC(=O)CCC4=C3C(c3ccc(N(C)C)cc3)CC21C (stereo not drawn) [CP161,258, 11-(4-Dimethylamino-phenyl)-17-hydroxy-13-methyl-17-prop-1-ynyl-1,2,6,7,8,11,12,13,14,15,16,17-dodecahydro-cyclopenta[a]phenanthren-3-one]
Progesterone in plasma; 4 mg/kg orally days 112 and 113
  concentrations of progesterone in plasma in the −24 hr period preceding parturition, compared to non-medicated controls: remained higher
Progesterone in plasma; Sample time 0 (immediately before farrowing), T2
  Mean concentration of progesterone in plasma: 7.5 (9) ng/ml
Progesterone in plasma; Sample time 1 (within 12 hr after farrowing was complete), T2
  Mean concentration of progesterone in plasma: 1.5 (9) ng/ml
Progesterone in plasma; Sample time −1 relative to farrowing, T2
  Mean concentration of progesterone in plasma: 12.3* (9) ng/ml
Progesterone in plasma; Sample time −2 relative to farrowing, T2
  Mean concentration of progesterone in plasma: 14.0* (8) ng/ml
Progesterone in plasma; Sample time −3 relative to farrowing, T2
  Mean concentration of progesterone in plasma: 14.5 (5) ng/ml
Progesterone in plasma; Sample time −4 relative to farrowing, T2 4 mg/kg orally days 112 and 113
  Mean concentration of progesterone in plasma: 14.2 (2) ng/ml
Progesterone in plasma; time 0 (immediately before farrowing)
  p4 = concentration of progesterone in plasma: 5.76 ng/mL and 8.12 ng/mL and 5.62 ng/mL and 9.45 ng/mL and 13.37 ng/mL and 4.95 ng/mL and 9.41 ng/mL and 5.64 ng/mL and 7.17 ng/mL
Progesterone in plasma; time 1 (within 12 hr after farrowing was complete)
  p4 = concentration of progesterone in plasma: 2.05 ng/mL and 1.34 ng/mL and 0.82 ng/mL and 1.62 ng/mL and 1.95 ng/mL and 4.50 ng/mL and 1.64 ng/mL and 1.11 ng/mL and 0.79 ng/mL
Progesterone in plasma; time −1
  p4 = concentration of progesterone in plasma: 8.27 ng/mL and 13.76 ng/mL and 13.88 ng/mL and 15.46 ng/mL and 18.89 ng/mL and 7.63 ng/mL and 8.18 ng/mL and 10.70 ng/mL and 16.70 ng/mL
Progesterone in plasma; time −2
  p4 = concentration of progesterone in plasma: 12.42 ng/mL and 17.27 ng/mL and 13.89 ng/mL and 15.47 ng/mL and 13.96 ng/mL and 15.17 ng/mL and 10.92 ng/mL and 17.76 ng/mL
Progesterone in plasma; time −3
  p4 = concentration of progesterone in plasma: 14.93 ng/mL and 13.88 ng/mL and 15.28 ng/mL and 14.66 ng/mL and 16.68 ng/mL
Progesterone in plasma; time −4
  p4 = concentration of progesterone in plasma: 15.25 ng/mL and 13.49 ng/mL
[1]; [3]
  Hr, Dose d 112 To 1st pig ± SD: 45 ± 26^a (13) Hr
  Hr, Dose d 113 To 1st pig ± SD: 45 ± 26^b (13) Hr
[1]; [4]
  Piglet data: Born alive: 9.2 (13)
  Piglet data: Mummies: 0.4* (13)
  Piglet data: Stillborn: 0.7 (13)
[1]; T2: 4 mg/kg days 112 and 113, numerically, not statistically
  number of stillborns lower compared with T1 non-medicated controls: 0.4 pigs/litter
[1]; T2: 4 mg/kg on days 112 and 113 (4/13)
  percent of animals that started farrowing on day 114: 31%
[1]; T2: 4 mg/kg on days 112 and 113 (7/13)
  percent of animals that started farrowing on day 113: Fifty-four
[1]; T2 CP161,258 D 112 + 113
  Reason (animals with incomplete data): Dystocia
[1]; [5]
  Hr, Dose d 112 To 1st pig ± SD: 33 ± 20 (13) Hr
  Hr, Dose d 113 To 1st pig ± SD: 33 ± 20^c (13) Hr
[1]; T3: 8 mg/kg BW on day 113 (11/13)
  percent of animals that started farrowing on day 114: 85%
[1]; T3: 8 mg/kg BW oral D 113
  Piglet data: Born alive: 8.6 (13)
  Piglet data: Mummies: 0.2 (13)
  Piglet data: Stillborn: 0.5 (13)
[1]; T3: single dose 8 mg/kg BW day 113, numerically, not statistically
  number of stillborns reduced compared with T1 non-medicated controls: 0.6 pigs/litter
[1]; [6]
  Born Alive: 8 and 13 (2×) and 10 (3×) and 9 (2×) and 7 and 2 and 12 and 6 and 11
  Hr, 1st treatment to 1st pig: 22.5 h and 24.5 h and 26.4 h and 28.6 h and 28.9 h and 32.1 h and 33.6 h and 45.7 h and 46 h and 46.3 h and 49.1 h and 96.3 h and 101 h
  Mummies: 0 (9×) and 2 and 1 (3×)
  Still-born: 1 (9×) and 0 (4×)
[1]; [7]
  Born Alive: 6 (3×) and 13 and 12 and 10 (3×) and 7 and 14 and 11 and 4 and 3
  Hr, 1st treatment to 1st pig: 49 h and 96 h and 21.2 h and 23.7 h and 24.4 h and 24.5 h and 24.7 h and 25.1 h and 25.2 h and 25.3 h and 26.3 h and 27.1 h and 34.4 h and 93.8 h
  Mummies: 0 (10×) and 1 (3×)
  Still-born: 0 (8×) and 2 (2×) and 1 (3×)
[1]; single dose of 8 mg/kg BW
  percent of animals that farrowed 24 to 27 hr post-dosing: 70%
  percent of animals that farrowed between 21 and 35 hr after dosing: 85%
swine
  induction of parturition: effectively induced parturition
[2]; 4 mg/kg BW days 112 and 113 of gestation
  time interval from the 1st administration to the onset of parturition, relative to non-medicated controls: half
[2]; [8]
  number of piglets born dead (stillborns), mean: 0.1 pigs/litter
  percent of animals that farrowed the day following the first treatment (day 113, within 1 day): 44% and 45%
  percent of animals with onset of parturition within 2 days: 100%
  percent of treated animals that farrowed on day 114: 56%
[2]; [9]
  Hr, 1st dose d 112 To 1st pig ± SD: 36 ± 15 (9) Hr
  Hr, 2nd dose d 113 To 1st pig ± SD: 36 ± 15 (9) Hr
[2]; [10]
  Piglet data: Born alive: 8.9 (9)
  Piglet data: Mummies: 0 (9)
  Piglet data: Stillborn: 0.1* (9)
[2]; T2: 4 mg/kg orally days 112 and 113, individual animals
  Mummified fetuses: 0

## Porcine relaxin
[1]
  effects on time to birth of the first pig, number born alive, or stillborns: not effective
[1]; listed as porcine relaxin
  effects on time to birth of the first pig, number born alive, or stillborns: did not have beneficial effects
[1]; [11]
  Hr, Dose d 112 To 1st pig ± SD: 56 ± 26 (13) Hr
  Hr, Dose d 113 To 1st pig ± SD: 56 ± 26^d (13) Hr
[1]; [12]
  Piglet data: Born alive: 6.4 (12)
  Piglet data: Mummies: 0.3 (12)
  Piglet data: Stillborn: 1.6 (12)
[1]; T4 Relaxin
  Reason (animals with incomplete data): Dystocia (born alive, stillborns, mummy count; also recorded: Dystocia-(born alive, stillborns, mummy count
[1]; [13]
  Born Alive: 6 (3×) and 3 and 8 and 4 (2×) and 9 (2×) and 1 and 14 and 7
  Hr, 1st treatment to 1st pig: 10.9 h and 25.3 h and 34.2 h and 47.4 h and 48.5 h and 49.2 h and 49.7 h and 51 h and 69.9 h and 74.9 h and 77.2 h and 82.4 h and 106.3 h
  Mummies: 2 and 0 (10×) and 1
  Still-born: 5 and 0 (2×) and 1 (4×) and 2 (5×)
